For 25 molecules, IC50 results are on record in US12209087B2, “AKT1 modulators” (Alterome Therapeutics, Inc., priority 2022, dated 2025).

The target in one test is T1, full length AKT E17K (Homo sapiens, UniProt P31749, E17K).
T1 construct: host or cells: HEK-293 (ATCC CRL-1573)
T1 sequence (P31749 whole entry E17K): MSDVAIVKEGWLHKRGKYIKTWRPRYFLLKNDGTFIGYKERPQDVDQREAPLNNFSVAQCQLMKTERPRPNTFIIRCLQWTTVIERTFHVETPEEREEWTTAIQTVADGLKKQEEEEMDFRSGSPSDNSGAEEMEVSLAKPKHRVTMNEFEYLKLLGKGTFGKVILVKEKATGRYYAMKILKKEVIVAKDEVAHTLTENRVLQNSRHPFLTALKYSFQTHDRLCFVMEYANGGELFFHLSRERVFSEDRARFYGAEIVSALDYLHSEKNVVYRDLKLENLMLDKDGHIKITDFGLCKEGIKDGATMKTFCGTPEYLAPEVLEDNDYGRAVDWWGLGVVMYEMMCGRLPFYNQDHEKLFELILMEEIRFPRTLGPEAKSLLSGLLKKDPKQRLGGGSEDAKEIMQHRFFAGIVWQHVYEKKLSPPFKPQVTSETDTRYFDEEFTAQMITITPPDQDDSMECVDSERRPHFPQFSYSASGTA
In words: NanoBRET Target Engagement (TE) Assay. The format is cell-based. The settings on record: competitive displacement of tracer in cells, read-out: AKT1 E17K IC50. From the text: The NanoBRET™ Target Engagement (TE) Intracellular Kinase Assays are based on the NanoBRET™ System (Promega Corporation), an energy transfer technique designed to measure molecular proximity in living cells. The NanoBRET™ TE Assays measure the apparent affinity of test compounds by competitive displacement of the NanoBRET™ tracer compound, which is a cell permeable molecule engineered to be reversibly bound to a NanoLuc® luciferase-kinase fusion expressed in cells. For compound screening, when a test compound binds to the selected kinase, the BRET signal is attenuated. […] All cells were evaluated for viability prior to transfection and optimization of the transfection was done prior to experimentation. […] Following transfection, cells were washed and resuspended in Opti-MEM. NanoBRET assays were performed in white, 384-well plates (Corning) at a density of […]. All example compounds were prepared as concentrated stock solutions in DMSO (Sigma-Aldrich). Compounds are dissolved in DMSO to make 10 mM stock solution. […] A Labcyte ECHO 550 compound dispenser was used to facilitate compound transfer directly to cells. Cells were equilibrated for 2 hr with energy transfer probes and example compound prior to BRET measurements. […] For target engagement analysis, the energy transfer probes were added to the cells at concentrations optimized for the target in question (AKT E17K). Following compound incubation, NanoBRET NanoGlo Substrate (Promega Cat #N157D) and Extracellular Nanoluc Inhibitor (Promega Cat #N235C) was added according to the manufacturer's recommended protocol, and luminescence was measured on Envision Reader (Perkin Elmer) Multimode Luminometer equipped with 450 nm BPfilter (donor) and 600 nm LPfilter (acceptor), using 0.5 s integration time. Milli-BRET units (mBU) are calculated by multiplying the raw BRET values by 1000. Apparent tracer affinity values (EC50) were determined using the sigmoidal dose-response (variable slope).
Competitive displacement data were then plotted and data were fit to determine the EC50 value for each example compound.
On the technique in general: BRET reads energy transfer from a luciferase to a nearby fluorophore.
By IC50 is commonly meant the concentration that inhibits the measured activity by half. `[2H]C([2H])([2H])Oc1ccc(-c2ccc3nc(-c4nccnc4N)n(-c4ccc(CN5CCC(Nc6ccnc(C#N)n6)CC5)cc4)c3n2)nc1` [Example 638, 4-((1-(4-(2-(3-Aminopyrazin-2-yl)-5-(5-(methoxy-d3)pyridin-2-yl)-3H-imidazo[4,5-b]pyridin-3-yl)benzyl)piperidin-4-yl)amino)pyrimidine-2-carbonitrile]: the half-inhibitory concentration (IC50) is under 15 nM.

Turning to `N#Cc1nccc(NC2CCN(Cc3ccc(-n4c(-c5cccnc5N)nc5ccc(-c6ncccc6C#N)nc54)cc3)CC2)n1` [Example 408, 4-((1-(4-(2-(2-Aminopyridin-3-yl)-5-(3-cyanopyridin-2-yl)-3H-imidazo[4,5-b]pyridin-3-yl)benzyl)piperidin-4-yl)amino)pyrimidine-2-carbonitrile], the half-inhibitory concentration (IC50) was under 15 nM. On the same count and under the same terms, then `N#Cc1ccc(-c2ccc3nc(-c4cccnc4N)n(-c4ccc(CN5CCC(Nc6ccnc(C#N)n6)CC5)cc4)c3n2)cc1` [Example 320, 4-((1-(4-(2-(2-Aminopyridin-3-yl)-5-(4-cyanophenyl)-3H-imidazo[4,5-b]pyridin-3-yl)benzyl)piperidin-4-yl)amino)pyrimidine-2-carbonitrile], with under 15 nM; and `COc1ccc(-c2ccc3nc(-c4cccnc4N)n(-c4ccc(CN5CCC(Nc6ccnc(C#N)n6)CC5)cc4)c3n2)cn1` [Example 516, 4-((1-(4-(2-(2-Aminopyridin-3-yl)-5-(6-methoxypyridin-3-yl)-3H-imidazo[4,5-b]pyridin-3-yl)benzyl)piperidin-4-yl)amino)pyrimidine-2-carbonitrile], with under 15 nM.

Regarding `N#Cc1ccnc(N2CCN(Cc3ccc(-n4c(-c5cccnc5N)nc5ccc(-c6ccccc6Cl)nc54)cc3)CC2)n1` [Example 325, 2-(4-(4-(2-(2-Aminopyridin-3-yl)-5-(2-chlorophenyl)-3H-imidazo[4,5-b]pyridin-3-yl)benzyl)piperazin-1-yl)pyrimidine-4-carbonitrile], the IC50 fell in the range of 15 to 60 nM. For `CC(C)n1ncc(-c2ccc3nc(-c4nccnc4N)n(-c4ccc(CN5CCC(Nc6ccnc(C#N)n6)CC5)cc4)c3n2)n1` [Example 630, 4-((1-(4-(2-(3-Aminopyrazin-2-yl)-5-(2-isopropyl-2H-1,2,3-triazol-4-yl)-3H-imidazo[4,5-b]pyridin-3-yl)benzyl)piperidin-4-yl)amino)pyrimidine-2-carbonitrile], the IC50 is under 15 nM. On the same count and under the same terms, next, `CSc1ccc2nc(-c3cccnc3N)n(-c3ccc(CN4CCC(Nc5ccnc(C#N)n5)CC4)cc3)c2n1` [Example 435, 4-((1-(4-(2-(2-Aminopyridin-3-yl)-5-(methylthio)-3H-imidazo[4,5-b]pyridin-3-yl)benzyl)piperidin-4-yl)amino)pyrimidine-2-carbonitrile]: under 15 nM; `N#Cc1nccc(NC2CCN(Cc3ccc(-n4c(-c5cccnc5N)nc5nccnc54)cc3)CC2)n1` [Example 413, 4-((1-(4-(2-(2-aminopyridin-3-yl)-1H-imidazo[4,5-b]pyrazin-1-yl)benzyl)piperidin-4-yl)amino)pyrimidine-2-carbonitrile]: 15 to 60 nM; `N#Cc1nccc(NC2CCN(Cc3ccc(-n4c(-c5cccnc5N)nc5cncnc54)cc3)CC2)n1` [Example 505, 4-((1-(4-(8-(2-Aminopyridin-3-yl)-9H-purin-9-yl)benzyl)piperidin-4-yl)amino)pyrimidine-2-carbonitrile]: 60 to 600 nM. With `N#Cc1nccc(NC2CCN(Cc3ccc(-n4c(-c5cccnc5N)nc5ccc([C@@H]6CCOC6)nc54)cc3)CC2)n1` (single isomer, unassigned) [Example 506], the 50% inhibitory concentration (IC50) is under 15 nM. On the same count and under the same terms, then `N#Cc1nccc(N2C[C@@H]3CN(Cc4ccc(-n5c(-c6cccnc6N)nc6ccc(-c7ccc(F)cc7)nc65)cc4)C[C@H]3C2)n1` [Example 450, 4-((3aS,6aS)-5-(4-(2-(2-Aminopyridin-3-yl)-5-(4-fluorophenyl)-3H-imidazo[4,5-b]pyridin-3-yl)benzyl)hexahydropyrrolo[3,4-c]pyrrol-2(1H)-yl)pyrimidine-2-carbonitrile], with 15 to 60 nM; and `COc1cc(F)ccc1-c1ccc2nc(-c3cccnc3N)n(-c3ccc(CN4CCC(Nc5ccnc(C#N)n5)CC4)cc3)c2n1` [Example 469, 4-((1-(4-(2-(2-Aminopyridin-3-yl)-5-(4-fluoro-2-methoxyphenyl)-3H-imidazo[4,5-b]pyridin-3-yl)benzyl)piperidin-4-yl)amino)pyrimidine-2-carbonitrile], with under 15 nM; and `N#Cc1ccnc(N2CCN(Cc3ccc(-n4c(-c5cccnc5N)nc5ccc(C6CC6)nc54)cc3)CC2)n1` [Example 350, 2-(4-(4-(2-(2-Aminopyridin-3-yl)-5-cyclopropyl-3H-imidazo[4,5-b]pyridin-3-yl)benzyl)piperazin-1-yl)pyrimidine-4-carbonitrile], with 15 to 60 nM.

As for `Cc1cncc(-c2ccc3nc(-c4cccnc4N)n(-c4ccc(CN5CCC(Nc6ccnc(C#N)n6)CC5)cc4)c3n2)c1` [Example 478, 4-((1-(4-(2-(2-Aminopyridin-3-yl)-5-(5-methylpyridin-3-yl)-3H-imidazo[4,5-b]pyridin-3-yl)benzyl)piperidin-4-yl)amino)pyrimidine-2-carbonitrile], the concentration for half-maximal inhibition (IC50) was under 15 nM. As to `N#Cc1nccc(N2CC3(CN(Cc4ccc(-n5c(-c6cccnc6N)nc6ccc(-c7ccc(F)cc7)nc65)cc4)C3)C2)n1` [Example 447, 4-(6-(4-(2-(2-Aminopyridin-3-yl)-5-(4-fluorophenyl)-3H-imidazo[4,5-b]pyridin-3-yl)benzyl)-2,6-diazaspiro[3.3]heptan-2-yl)pyrimidine-2-carbonitrile], the IC50 was under 15 nM. On the same count and under the same terms, then `N#Cc1nccc(NC2CCN(Cc3ccc(-n4c(-c5cccnc5N)nc5ccc(Cl)nc54)cc3)CC2)n1` [Example 405, 4-((1-(4-(2-(2-Aminopyridin-3-yl)-5-chloro-3H-imidazo[4,5-b]pyridin-3-yl)benzyl)piperidin-4-yl)amino)pyrimidine-2-carbonitrile], with under 15 nM. The same measure, in the same setting: next, `N#Cc1nccc(N2CCN(Cc3ccc(-n4c(-c5cccnc5N)nc5ccc(-c6cccnc6)nc54)cc3)CC2)n1` [Example 432]: under 15 nM; `N#Cc1nccc(NC2CCN(Cc3ccc(-n4c(-c5cccnc5N)nc5ccc(C6CCOC6)nc54)cc3)CC2)n1` (stereo not shown) [Example 417, 4-((1-(4-(2-(2-Aminopyridin-3-yl)-5-(tetrahydrofuran-3-yl)-3H-imidazo[4,5-b]pyridin-3-yl)benzyl)piperidin-4-yl)amino)pyrimidine-2-carbonitrile]: under 15 nM.

Staying with this test, now noted: competitive tracer displacement in living cells, read-out: AKT1 E17K IC50.
On to `N#Cc1ccnc(N2CCN(Cc3ccc(-n4c(-c5cccnc5N)nc5ccc(-c6ccccc6)nc54)cc3)CC2)n1` [Example 68, 2-(4-(4-(2-(2-Aminopyridin-3-yl)-5-phenyl-3H-imidazo[4,5-b]pyridin-3-yl)benzyl)piperazin-1-yl)pyrimidine-4-carbonitrile], for which the IC50 was under 15 nM. The same measure, in the same setting: then `N#Cc1cccc(NCc2ccc(-n3c(-c4cccnc4N)nc4cccnc43)cc2)n1` [Example 130, 6-((4-(2-(2-Aminopyridin-3-yl)-3H-imidazo[4,5-b]pyridin-3-yl)benzyl)amino)picolinonitrile], with 600 to 10000 nM. On the same count and under the same terms, then `N#Cc1cncc(N2CCN(Cc3ccc(-n4c(-c5cccnc5N)nc5ccc(-c6ccccc6)nc54)cc3)CC2)n1` [Example 67, 6-(4-(4-(2-(2-Aminopyridin-3-yl)-5-phenyl-3H-imidazo[4,5-b]pyridin-3-yl)benzyl)piperazin-1-yl)pyrazine-2-carbonitrile], with 60 to 600 nM; and `N#Cc1cc(N2CCN(Cc3ccc(-n4c(-c5cccnc5N)nc5ccc(N6CCOCC6)nc54)cc3)CC2)ncn1` [Example 237, 6-(4-(4-(2-(2-Aminopyridin-3-yl)-5-morpholino-3H-imidazo[4,5-b]pyridin-3-yl)benzyl)piperazin-1-yl)pyrimidine-4-carbonitrile], with 15 to 60 nM; and `N#Cc1cccc(C(=O)N2CCN(Cc3ccc(-n4c(-c5cccnc5N)nc5cccnc54)cc3)CC2)n1` [Example 69, 6-(4-(4-(2-(2-Aminopyridin-3-yl)-3H-imidazo[4,5-b]pyridin-3-yl)benzyl)piperazine-1-carbonyl)picolinonitrile], with 600 to 10000 nM. `N#Cc1cnccc1C(=O)N1CCN(Cc2ccc(-n3c(-c4cccnc4N)nc4cccnc43)cc2)CC1` [Example 154, 4-(4-(4-(2-(2-Aminopyridin-3-yl)-3H-imidazo[4,5-b]pyridin-3-yl)benzyl)piperazine-1-carbonyl)nicotinonitrile]: the IC50 was 600 to 10000 nM.

On to `N#Cc1nccc(N2CCN(Cc3ccc(-n4c(-c5cccnc5N)nc5ccc(-c6ccccc6F)nc54)cc3)CC2)n1` [Example 281, 4-(4-(4-(2-(2-Aminopyridin-3-yl)-5-(2-fluorophenyl)-3H-imidazo[4,5-b]pyridin-3-yl)benzyl)piperazin-1-yl)pyrimidine-2-carbonitrile], for which the IC50 is under 15 nM.
